For experiment [1], the target named is T1, MAO-A (Rattus norvegicus, UniProt P21396).
T1 sequence (P21396 1-526): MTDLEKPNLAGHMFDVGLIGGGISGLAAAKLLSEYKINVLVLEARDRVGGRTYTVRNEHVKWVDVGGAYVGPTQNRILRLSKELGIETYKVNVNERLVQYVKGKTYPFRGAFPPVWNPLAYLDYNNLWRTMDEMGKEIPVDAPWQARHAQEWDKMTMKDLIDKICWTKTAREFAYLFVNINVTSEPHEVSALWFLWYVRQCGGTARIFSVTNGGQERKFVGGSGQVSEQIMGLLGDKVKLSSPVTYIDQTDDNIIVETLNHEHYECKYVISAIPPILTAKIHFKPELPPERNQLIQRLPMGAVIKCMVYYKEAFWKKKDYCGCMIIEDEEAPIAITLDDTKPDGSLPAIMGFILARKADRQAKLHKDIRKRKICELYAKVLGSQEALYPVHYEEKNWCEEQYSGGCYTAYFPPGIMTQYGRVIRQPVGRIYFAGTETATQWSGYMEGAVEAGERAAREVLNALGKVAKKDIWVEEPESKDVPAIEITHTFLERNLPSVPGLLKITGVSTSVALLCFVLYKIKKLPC
As to the kind of experiment: In vitro MAO-A enzyme activity radioenzymatic assay (14C-serotonin substrate), rat brain crude mitochondrial fraction.

Experiment [2] addresses T2, MAO-B (Rattus norvegicus, UniProt P19643).
T2 sequence (P19643 1-520): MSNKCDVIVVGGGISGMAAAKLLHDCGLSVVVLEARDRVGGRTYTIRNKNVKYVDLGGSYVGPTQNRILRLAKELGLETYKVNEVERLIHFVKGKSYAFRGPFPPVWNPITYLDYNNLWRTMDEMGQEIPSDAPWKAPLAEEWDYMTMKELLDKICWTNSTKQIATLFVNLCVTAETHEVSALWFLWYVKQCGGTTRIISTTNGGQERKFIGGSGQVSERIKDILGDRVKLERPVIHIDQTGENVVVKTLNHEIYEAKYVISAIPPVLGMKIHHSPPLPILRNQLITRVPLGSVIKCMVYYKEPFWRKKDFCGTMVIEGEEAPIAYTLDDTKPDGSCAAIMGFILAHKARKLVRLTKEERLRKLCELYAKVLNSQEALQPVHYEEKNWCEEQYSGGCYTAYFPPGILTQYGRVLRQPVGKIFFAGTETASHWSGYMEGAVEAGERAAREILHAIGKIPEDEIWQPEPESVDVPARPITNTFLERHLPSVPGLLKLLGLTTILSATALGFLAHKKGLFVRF
As to the kind of experiment: In vitro MAO-B enzyme activity radioenzymatic assay (14C-phenylethylamine substrate), rat brain crude mitochondrial fraction.

Molecules are shown by their SMILES.

The term IC50 denotes the point on the concentration scale where inhibition reaches its midpoint. A higher IC50 goes with weaker potency in that assay.

Take `NCCc1cc(=O)oc2cc(OCc3cccc(Cl)c3)ccc12` [4-(2-Aminoethyl)-7-(3-chlorobenzyloxy)-2H-chromen-2-one]: the results for the IC50 in experiment [1] and in experiment [2] were 31800 nM and 250 nM, respectively.

On to `NCc1cc(=O)oc2cc(OCc3cccc(Cl)c3)ccc12` [4-Aminomethyl-7-(3-chlorobenzyloxy)-2H-chromen-2-one], for which the IC50 in experiment [1] is 1900 nM; in experiment [2], 10 nM.

As for `CNCCc1cc(=O)oc2cc(OCc3cccc(Cl)c3)ccc12` [4-[2-(Methylamino)ethyl]-7-(3-chlorobenzyloxy)-2H-chromen-2-one], the IC50 in experiment [1] amounted to 74000 nM; in experiment [2], 300 nM.

Consider `NC(=O)Cc1cc(=O)oc2cc(OCc3cccc(F)c3)ccc12` [4-[(Aminocarbonyl)methyl]-7-(3-fluorobenzyloxy)-2H-chromen-2-one], for which the IC50 in experiment [1] was 70000 nM; in experiment [2] it was 50 nM.

In the case of `CN(C)C(=O)CC1=CCOc2cc(OCc3ccccc3)ccc21` [4-[(Dimethylaminocarbonyl)methyl]-7-benzyloxy-2H-chromene], the IC50 in experiment [1] came out at 15300 nM; in experiment [2] it was 80 nM.

On to `NNC(=O)Cc1cc(=O)oc2cc(OCc3ccccc3)ccc12` [4-[(Hydrazinocarbonyl)methyl]-7-benzyloxy-2H-chromen-2-one], for which 1400 nM corresponded to half-maximal inhibition in experiment [1] (IC50).

Take `CNCc1cc(=O)oc2cc(OCc3cccc(Cl)c3)ccc12` [4-[(Methylamino)methyl]-7-(3-chlorobenzyloxy)-2H-chromen-2-one]: the 50% inhibitory concentration (IC50) was 5900 nM in experiment [1] and 10 nM in experiment [2].

For `CNCc1cc(=O)oc2cc(OCc3cccc(F)c3)ccc12` [4-[(Methylamino)methyl]-7-(3-fluorobenzyloxy)-2H-chromen-2-one], the half-inhibitory concentration (IC50) in experiment [1] is 13500 nM; in experiment [2], 20 nM.

For `CN(C)C(=O)Cc1cc(=O)oc2cc(OCc3cccc(Cl)c3)ccc12` [4-[Dimethylaminocarbonyl)methyl]-7-(3-chlorobenzyloxy)-2H-chromen-2-one], the values for the IC50 in experiment [1] and in experiment [2] were more than 100000 nM and 40 nM, respectively.

For the origin of these results see US20090005436A1, “Substituted Aminoalkyl- and Amidoalkyl-Benzopyran Derivatives” (NEWRON PHARMACEUTICALS S.p.A., priority 2005, published 2009).
